Data taken from PubChem BioAssay (NCI).
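Method: 48-hour compound exposure of cells in 96-well plates, five concentrations, linear interpolation of endpoints. TGI denotes the concentration required for complete inhibition of growth.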

Columns and labels:
Experiment in all cases: inhibition of tumour cell growth, NCI panel, 48 h
786-0 renal = tested on: 786-0 renal
A498 renal = tested on: A498 renal
A549 NSCLC = tested on: A549 NSCLC
ACHN renal = tested on: ACHN renal
CAKI-1 renal = tested on: CAKI-1 renal
CCRF-CEM leukemia = tested on: CCRF-CEM leukemia
COLO 205 colon = tested on: COLO 205 colon
DMS 114 small cell lung = tested on: DMS 114 small cell lung
DMS 273 small cell lung = tested on: DMS 273 small cell lung
EKVX NSCLC = tested on: EKVX NSCLC
HCC-2998 colon = tested on: HCC-2998 colon
HCT-116 colon = tested on: HCT-116 colon
HL-60(TB) leukemia = tested on: HL-60(TB) leukemia
HOP-18 NSCLC = tested on: HOP-18 NSCLC
HOP-62 NSCLC = tested on: HOP-62 NSCLC
HOP-92 NSCLC = tested on: HOP-92 NSCLC
HT29 colon = tested on: HT29 colon
IGROV1 ovarian = tested on: IGROV1 ovarian
K-562 leukemia = tested on: K-562 leukemia
KM12 colon = tested on: KM12 colon
KM20L2 colon = tested on: KM20L2 colon
LOX IMVI melanoma = tested on: LOX IMVI melanoma
M14 melanoma = tested on: M14 melanoma
M19-MEL melanoma = tested on: M19-MEL melanoma
MALME-3M melanoma = tested on: MALME-3M melanoma
MOLT-4 leukemia = tested on: MOLT-4 leukemia
NCI-H226 lung = tested on: NCI-H226 lung
NCI-H23 lung = tested on: NCI-H23 lung
NCI-H522 lung = tested on: NCI-H522 lung
OVCAR-3 ovarian = tested on: OVCAR-3 ovarian
OVCAR-4 ovarian = tested on: OVCAR-4 ovarian
OVCAR-5 ovarian = tested on: OVCAR-5 ovarian
OVCAR-8 ovarian = tested on: OVCAR-8 ovarian
RXF 393 renal = tested on: RXF 393 renal
RXF-631 renal = tested on: RXF-631 renal
SF-268 CNS = tested on: SF-268 CNS
SF-295 CNS = tested on: SF-295 CNS
SF-539 CNS = tested on: SF-539 CNS
SK-MEL-2 melanoma = tested on: SK-MEL-2 melanoma
SK-MEL-28 melanoma = tested on: SK-MEL-28 melanoma
SK-MEL-5 melanoma = tested on: SK-MEL-5 melanoma
SK-OV-3 ovarian = tested on: SK-OV-3 ovarian
SN12C renal = tested on: SN12C renal
SNB-19 CNS = tested on: SNB-19 CNS
SNB-75 CNS = tested on: SNB-75 CNS
SR leukemia = tested on: SR leukemia
SW-620 colon = tested on: SW-620 colon
TK-10 renal = tested on: TK-10 renal
U251 CNS = tested on: U251 CNS
UACC-257 melanoma = tested on: UACC-257 melanoma
UACC-62 melanoma = tested on: UACC-62 melanoma
UO-31 renal = tested on: UO-31 renal
XF 498 CNS = tested on: XF 498 CNS

**Q.** For `CC(=O)OCc1c(C)c2ccccc2n1C(C)=O`, which TGI (786-0 renal) is on record?
**A.** The TGI was greater than 100 µM.

**Q.** What about the TGI (A498 renal) of the same compound?
**A.** Its TGI is greater than 100 µM.

**Q.** And the TGI (A549 NSCLC)?
**A.** Its TGI is greater than 100 µM.

**Q.** And the TGI (ACHN renal)?
**A.** The TGI was 71 µM.

**Q.** And the TGI (CAKI-1 renal)?
**A.** Its TGI is greater than 100 µM.

**Q.** And the TGI (CCRF-CEM leukemia)?
**A.** Its TGI is 73.6 µM.

**Q.** What about the TGI (COLO 205 colon) of the same compound?
**A.** The TGI was greater than 100 µM.

**Q.** What about the TGI (DMS 114 small cell lung) of the same compound?
**A.** The TGI was 47 µM.

**Q.** What about the TGI (DMS 273 small cell lung) of the same compound?
**A.** Its TGI is 59.9 µM.

**Q.** And the TGI (EKVX NSCLC)?
**A.** The TGI was greater than 100 µM.

**Q.** And the TGI (HCC-2998 colon)?
**A.** The TGI was greater than 100 µM.

**Q.** And the TGI (HCT-116 colon)?
**A.** Its TGI is greater than 100 µM.

**Q.** And the TGI (HL-60(TB) leukemia)?
**A.** Its TGI is 66.9 µM.

**Q.** And the TGI (HOP-18 NSCLC)?
**A.** Its TGI is greater than 100 µM.

**Q.** What about the TGI (HOP-62 NSCLC) of the same compound?
**A.** The TGI was greater than 100 µM.

**Q.** And the TGI (HOP-92 NSCLC)?
**A.** The TGI was greater than 100 µM.

**Q.** And the TGI (HT29 colon)?
**A.** The TGI was greater than 100 µM.

**Q.** What about the TGI (IGROV1 ovarian) of the same compound?
**A.** The TGI was greater than 100 µM.

**Q.** What about the TGI (K-562 leukemia) of the same compound?
**A.** The TGI was 71.5 µM.

**Q.** What about the TGI (KM12 colon) of the same compound?
**A.** The TGI was greater than 100 µM.

**Q.** What about the TGI (KM20L2 colon) of the same compound?
**A.** The TGI was greater than 100 µM.

**Q.** What about the TGI (LOX IMVI melanoma) of the same compound?
**A.** The TGI was greater than 100 µM.

**Q.** And the TGI (M14 melanoma)?
**A.** The TGI was greater than 100 µM.

**Q.** And the TGI (M19-MEL melanoma)?
**A.** The TGI was greater than 100 µM.

**Q.** What about the TGI (MALME-3M melanoma) of the same compound?
**A.** The TGI was 73.7 µM.

**Q.** What about the TGI (MOLT-4 leukemia) of the same compound?
**A.** The TGI was 86.7 µM.

**Q.** And the TGI (NCI-H226 lung)?
**A.** Its TGI is greater than 100 µM.

**Q.** What about the TGI (NCI-H23 lung) of the same compound?
**A.** Its TGI is greater than 100 µM.

**Q.** And the TGI (NCI-H522 lung)?
**A.** The TGI was 39.2 µM.

**Q.** What about the TGI (OVCAR-3 ovarian) of the same compound?
**A.** The TGI was 62.8 µM.

**Q.** What about the TGI (OVCAR-4 ovarian) of the same compound?
**A.** Its TGI is greater than 100 µM.

**Q.** What about the TGI (OVCAR-5 ovarian) of the same compound?
**A.** The TGI was greater than 100 µM.

**Q.** What about the TGI (OVCAR-8 ovarian) of the same compound?
**A.** Its TGI is greater than 100 µM.

**Q.** What about the TGI (RXF 393 renal) of the same compound?
**A.** The TGI was 75.3 µM.

**Q.** And the TGI (RXF-631 renal)?
**A.** Its TGI is 66.9 µM.

**Q.** What about the TGI (SF-268 CNS) of the same compound?
**A.** The TGI was greater than 100 µM.

**Q.** What about the TGI (SF-295 CNS) of the same compound?
**A.** The TGI was greater than 100 µM.

**Q.** What about the TGI (SF-539 CNS) of the same compound?
**A.** The TGI was greater than 100 µM.

**Q.** And the TGI (SK-MEL-2 melanoma)?
**A.** The TGI was 43.3 µM.

**Q.** What about the TGI (SK-MEL-28 melanoma) of the same compound?
**A.** The TGI was greater than 100 µM.

**Q.** And the TGI (SK-MEL-5 melanoma)?
**A.** The TGI was greater than 100 µM.

**Q.** And the TGI (SK-OV-3 ovarian)?
**A.** The TGI was greater than 100 µM.

**Q.** And the TGI (SN12C renal)?
**A.** Its TGI is greater than 100 µM.

**Q.** What about the TGI (SNB-19 CNS) of the same compound?
**A.** The TGI was greater than 100 µM.

**Q.** And the TGI (SNB-75 CNS)?
**A.** Its TGI is greater than 100 µM.

**Q.** What about the TGI (SR leukemia) of the same compound?
**A.** Its TGI is 76.1 µM.

**Q.** And the TGI (SW-620 colon)?
**A.** The TGI was greater than 100 µM.

**Q.** And the TGI (TK-10 renal)?
**A.** The TGI was greater than 100 µM.

**Q.** And the TGI (U251 CNS)?
**A.** Its TGI is greater than 100 µM.

**Q.** And the TGI (UACC-257 melanoma)?
**A.** The TGI was 89.8 µM.

**Q.** What about the TGI (UACC-62 melanoma) of the same compound?
**A.** The TGI was greater than 100 µM.

**Q.** And the TGI (UO-31 renal)?
**A.** Its TGI is greater than 100 µM.

**Q.** And the TGI (XF 498 CNS)?
**A.** The TGI was 84.6 µM.
